Measured values reported in paper PMC7006505, “Chemical biology tools for probing transcytosis at the blood–brain barrier” (Chemical Science, 2019).
Bridge positions count the residues as written; N and C are the ends. Square brackets hold non-standard residues; d marks the D form. Triazole bridges read from a SMILES are 1,4-linked. Ends that are not written are not given here. I, II: the chains in the order shown. * marks the point of attachment. 5FAM = O=C1OC2(c3ccc(O)cc3Oc3cc(O)ccc32)c2ccc(C(=O)*)cc21; Lys(N3) = [N-]=[N+]=NCCCC[C@H](N)C(=O)O; Pra = C#CC[C@H](N)C(=O)O

System: bEnd.3/MSC co-culture
Test: Transcytosis assay, transwell in vitro BBB model with dex-TexR correction (cPapp)
Type: in vitro ADME, mouse
Conditions: apical to basolateral; for fold increase in permeability (cPapp) relative to Tf-A647: bEnd.3/MSC co-culture on polyester transwell inserts (0.4 µm pore), 0.5 µM vehicle with 5 µM dex-TexR (3000 Da), DMEM without FCS after 1 h serum starvation, three inserts with and without culture, paracellular contribution subtracted; for fold increase in permeability (cPapp) relative to Tf-A647 / cPapp at 4 °C: fluorescence read-out; for cPapp at 4 °C: FAM-labelled vehicle co-incubated with dex-TexR, corrected for paracellular diffusion
Excerpt: To study transcytosis potential of the vehicles in vitro we optimised a BBB model using a 3D-transwell format. […] This is similar to results shown by others.[16] Immunostaining for TJ protein ZO-1 in the bEnd.3 cell line confirmed its presence and trafficking towards the cell junctions (Fig. S7 ^†).
It seemed plausible that a similar sized marker (such as TexasRed labelled dextran (dex-TexR; 3000 g mol^–1)) that is incapable of AMT or RMT uptake could serve as an internal standard to quantify paracellular contribution of the vehicles. As exemplified in Fig. 4A, experiments are performed in parallel with probes (both dex-TexR and FAM-PPII vehicle or Tf-A647) fed to insets containing either the cell monolayer (PSt) or filter alone (PSf). The corresponding Papp for dex-TexR in both scenarios is first calculated and the extent in which movement is reduced by presence of the monolayer (defined here as the transport ratio (TR)) is used to determine the expected paracellular diffusion rate of the individual vehicles. We employed Tf-A647 and a similarly sized TexasRed labelled dextran (dex-TexR; 70 000 g mol^–1) as a positive control for transcytosis. […] When incubated in the presence of cells, dex-TexR was detected in the basolateral compartment indicating background paracellular flux. However, Tf-A647 was cleared at a faster rate in comparison, confirming transcytosis of the molecule.
Fig. 4 Modified workflow and results for determining the cPapp of a macromolecule, accounting for contributions made by paracellular diffusion across an in vitro barrier. […] (B–C) Clearance plots obtained by incubation of Tf-A647 or dex-TexR with filters alone (B; PSf) or with cells (C; PSt). […] Division of PSt/PSf for dextran generates the transport ratio (TR). Expected paracellular contribution of the vehicle is obtained by multiplying TR by the Papp of the compound of interest without cells. cPapp values are obtained by subtracting this value from Papp of compound with cells. Key: red = dex-TexR; blue = Tf-A647; dashed lines = filter insert only; solid lines = transwell culture (D) cPapp values for delivery vehicles screened in the transcytosis assay.
(3 × 1 mL), and trypsinisation was conducted using a solution of 0.25 % (w/v) trypsin-EDTA solution (0.5 mL, 3 min, 37 °C, 5 % CO2 incubation), unless otherwise specified. When required, a Scan Speed 1580R centrifuge (Labmode) was used to pellet cell suspensions. All tissue culture work was performed in sterilised Corning well plates, and cell based assays used DMEM media (ThermoFisher, #31053028) without FCS and phenol red, unless otherwise specified. bEND.3 cells were a gift from Rachael Brown (Kings College London), while MSC cells were a gift from the Battaglia group (University College London).
Cells were maintained in high glucose Dulbecco’s Modified Eagle’s Medium (DMEM) (ATCC #30-2002) supplemented with 10 % FCS. Cells were sub-cultured routinely using trypsin solution once 100 % confluence was achieved. For uptake and transcytosis studies, cells under passage number 30 were used. After this time, these cells may begin to lose their barr ier functionality, as identified from an extensive study performed by Brown et al.1 Mesenchymal stem cells (MSC)
MSC, as surrogates for pericytes, were maintained in DMEM/F12 medium containing GlutaMAX and L-glutamine (2 mM) (ThermoFisher, #10565-018), supplemented with 10 % FCS and 5 μg/mL Gentamicin (SIGMA, G1397). Cultures were sub -cultured routinely using trypsin solution once 70 -80 % confluence was achieved.
For all transcytosis assays, polyester filter inserts (Corning, #3460; 0.4 µm pore, 12 mm diameter, 10 µm thick) were used in 12-well cell culture plates. Optimum media volumes were calculated to be 950 µL and 475 µL for apical and basolateral chambers respectively. Both chambers were coated with rat tail collagen (5 µg/cm2) for 2 h at room temperature prior to use. bEND.3 cells were seeded at a density of 2 × 10^4 cells/well onto insets, and grown to […]

Row | Compound | fold increase in permeability (cPapp) relative to Tf-A647 (37 °C) | cPapp at 4 °C (bEnd.3/MSC transwell) | transcytosis / permeability in BBB model, in words (bEnd.3/MSC transwell, 0.5 µM vehicle, 37 °C, cPapp)
1 | I: 5FAM-VR[Pra]PPPVRLPPPVR[Pra]PPP-NH2 / II: [Lys(N3)]THRPPMWSPVWP-NH2 / III: [Lys(N3)]THRPPMWSPVWP-NH2 (triazole I:3-III:1, I:15-II:1) [PPII(L3X;L15X)TfRL1] | 3.0 fold | -0.079 cm/min x 10^-5 | 
2 | Tf-A647: human derived AlexaFluor 647-conjugated transferrin [reference compound] |  | 0.09 cm/min x 10^-5 | 
3 | I: 5FAM-VR[Pra]PPPVRLPPP[Pra]RLPPP-NH2 / II: [Lys(N3)]THRPPMWSPVWP-NH2 / III: [Lys(N3)]THRPPMWSPVWP-NH2 (triazole I:3-III:1, I:13-II:1) [PPII(L3X;V13X)TfRL1] | 3.5 fold |  | 
4 | CC(C)C[C@H](NC(=O)[C@H](CCCNC(=N)N)NC(=O)[C@@H](NC(=O)[C@@H]1CCCN1C(=O)[C@@H]1CCCN1C(=O)[C@@H]1CCCN1C(=O)[C@H](Cc1cn(CCCC[C@H](N)C(=O)N[C@H](C(=O)N[C@@H](Cc2ccccc2)C(=O)N[C@@H](Cc2ccccc2)C(=O)N[C@@H](Cc2ccc(O)cc2)C(=O)NCC(=O)NCC(=O)N[C@@H](CO)C(=O)N[C@@H](CCCNC(=N)N)C(=O)NCC(=O)N[C@@H](CCCCN)C(=O)N[C@@H](CCCNC(=N)N)C(=O)N[C@@H](CC(N)=O)C(=O)N[C@@H](CC(N)=O)C(=O)N[C@@H](Cc2ccccc2)C(=O)N[C@@H](CCCCN)C(=O)N[C@H](C(=O)N[C@@H](CCC(=O)O)C(=O)N[C@@H](CCC(=O)O)C(=O)N[C@@H](Cc2ccc(O)cc2)C(N)=O)[C@@H](C)O)[C@@H](C)O)nn1)NC(=O)[C@H](CCCNC(=N)N)NC(=O)[C@@H](NC(=O)c1ccc2c(c1)C(=O)OC21c2ccc(O)cc2Oc2cc(O)ccc21)C(C)C)C(C)C)C(=O)N1CCC[C@H]1C(=O)N1CCC[C@H]1C(=O)N1CCC[C@H]1C(=O)N[C@H](C(=O)N[C@@H](CCCNC(=N)N)C(=O)N[C@@H](Cc1cn(CCCC[C@H](N)C(=O)N[C@H](C(=O)N[C@@H](Cc2ccccc2)C(=O)N[C@@H](Cc2ccccc2)C(=O)N[C@@H](Cc2ccc(O)cc2)C(=O)NCC(=O)NCC(=O)N[C@@H](CO)C(=O)N[C@@H](CCCNC(=N)N)C(=O)NCC(=O)N[C@@H](CCCCN)C(=O)N[C@@H](CCCNC(=N)N)C(=O)N[C@@H](CC(N)=O)C(=O)N[C@@H](CC(N)=O)C(=O)N[C@@H](Cc2ccccc2)C(=O)N[C@@H](CCCCN)C(=O)N[C@H](C(=O)N[C@@H](CCC(=O)O)C(=O)N[C@@H](CCC(=O)O)C(=O)N[C@@H](Cc2ccc(O)cc2)C(N)=O)[C@@H](C)O)[C@@H](C)O)nn1)C(=O)N1CCC[C@H]1C(=O)N1CCC[C@H]1C(=O)N1CCC[C@H]1C(N)=O)C(C)C [PPII(L3X;L15X)APep2] |  |  | limited transcytosis
5 | CC[C@H](C)[C@H](NC(=O)[C@H](C)NC(=O)[C@@H](N)Cc1c[nH]cn1)C(=O)N[C@@H](Cc1ccc(O)cc1)C(=O)N1CCC[C@H]1C(=O)N[C@@H](CCCNC(=N)N)C(=O)N[C@@H](Cc1c[nH]cn1)C(=O)NCCCC[C@H](NC(=O)[C@H](CCCNC(=N)N)NC(=O)[C@@H](NC(=O)[C@@H]1CCCN1C(=O)[C@@H]1CCCN1C(=O)[C@@H]1CCCN1C(=O)[C@H](CC(C)C)NC(=O)[C@H](CCCNC(=N)N)NC(=O)[C@@H](NC(=O)[C@@H]1CCCN1C(=O)[C@@H]1CCCN1C(=O)[C@@H]1CCCN1C(=O)[C@H](Cc1cn(CCCC[C@H](N)C(=O)N[C@H](C(=O)N[C@@H](Cc2ccccc2)C(=O)N[C@@H](Cc2ccccc2)C(=O)N[C@@H](Cc2ccc(O)cc2)C(=O)NCC(=O)NCC(=O)N[C@@H](CO)C(=O)N[C@@H](CCCNC(=N)N)C(=O)NCC(=O)N[C@@H](CCCCN)C(=O)N[C@@H](CCCNC(=N)N)C(=O)N[C@@H](CC(N)=O)C(=O)N[C@@H](CC(N)=O)C(=O)N[C@@H](Cc2ccccc2)C(=O)N[C@@H](CCCCN)C(=O)N[C@H](C(=O)N[C@@H](CCC(=O)O)C(=O)N[C@@H](CCC(=O)O)C(=O)N[C@@H](Cc2ccc(O)cc2)C(N)=O)[C@@H](C)O)[C@@H](C)O)nn1)NC(=O)[C@H](CCCNC(=N)N)NC(=O)[C@@H](NC(=O)c1ccc2c(c1)C(=O)OC21c2ccc(O)cc2Oc2cc(O)ccc21)C(C)C)C(C)C)C(C)C)C(=O)N1CCC[C@H]1C(=O)N1CCC[C@H]1C(=O)N1CCC[C@H]1C(N)=O [PPII(L3X;L15K)TfRL2(K);APep2(X)] | 1.8 fold |  | 
6 | CC[C@H](C)[C@H](NC(=O)[C@H](C)NC(=O)[C@H](Cc1c[nH]cn1)NC(=O)[C@@H](N)CCCCn1cc(C[C@H](NC(=O)[C@@H](NC(=O)[C@@H]2CCCN2C(=O)[C@@H]2CCCN2C(=O)[C@@H]2CCCN2C(=O)[C@H](CC(C)C)NC(=O)[C@H](CCCNC(=N)N)NC(=O)[C@@H](NC(=O)c2ccc3c(c2)C(=O)OC32c3ccc(O)cc3Oc3cc(O)ccc32)C(C)C)C(C)C)C(=O)N[C@@H](CC(C)C)C(=O)N2CCC[C@H]2C(=O)N2CCC[C@H]2C(=O)N2CCC[C@H]2C(=O)N[C@H](C(=O)N[C@@H](CCCNC(=N)N)C(=O)N[C@@H](CC(C)C)C(=O)N2CCC[C@H]2C(=O)N2CCC[C@H]2C(=O)N2CCC[C@H]2C(N)=O)C(C)C)nn1)C(=O)N[C@@H](Cc1ccc(O)cc1)C(=O)N1CCC[C@H]1C(=O)N[C@@H](CCCNC(=N)N)C(=O)N[C@@H](Cc1c[nH]cn1)C(N)=O [PPII(R8X)TfRL2] | 1.4 fold | -0.085 cm/min x 10^-5 | 
7 | CC(C)C[C@H](NC(=O)[C@H](CCCNC(=N)N)NC(=O)[C@@H](NC(=O)[C@@H]1CCCN1C(=O)[C@@H]1CCCN1C(=O)[C@@H]1CCCN1C(=O)[C@H](CC(C)C)NC(=O)[C@H](Cc1cn(CCCC[C@H](N)C(=O)N[C@H](C(=O)N[C@@H](Cc2ccccc2)C(=O)N[C@@H](Cc2ccccc2)C(=O)N[C@@H](Cc2ccc(O)cc2)C(=O)NCC(=O)NCC(=O)N[C@@H](CO)C(=O)N[C@@H](CCCNC(=N)N)C(=O)NCC(=O)N[C@@H](CCCCN)C(=O)N[C@@H](CCCNC(=N)N)C(=O)N[C@@H](CC(N)=O)C(=O)N[C@@H](CC(N)=O)C(=O)N[C@@H](Cc2ccccc2)C(=O)N[C@@H](CCCCN)C(=O)N[C@H](C(=O)N[C@@H](CCC(=O)O)C(=O)N[C@@H](CCC(=O)O)C(=O)N[C@@H](Cc2ccc(O)cc2)C(N)=O)[C@@H](C)O)[C@@H](C)O)nn1)NC(=O)[C@@H](NC(=O)[C@@H]1CCCN1C(=O)[C@@H]1CCCN1C(=O)[C@@H]1CCCN1C(=O)[C@H](CC(C)C)NC(=O)[C@H](CCCNC(=N)N)NC(=O)[C@@H](NC(=O)c1ccc2c(c1)C(=O)OC21c2ccc(O)cc2Oc2cc(O)ccc21)C(C)C)C(C)C)C(C)C)C(=O)N1CCC[C@H]1C(=O)N1CCC[C@H]1C(=O)N1CCC[C@H]1C(N)=O [PPII(R8X)APep2] | 4.9 fold | -0.058 cm/min x 10^-5 | 
